Our source for the induction of apoptosis and viability values is article PMC7767381, “Exploring the Anti-Cancer Mechanism of Novel 3,4′-Substituted Diaryl Guanidinium Derivatives” (Pharmaceuticals, 2020).

This assay deals with HL-60 cells. Briefly: Annexin V-FITC/PI flow cytometry apoptosis assay in HL-60. Format: cell-based, human. The note with it: 48 h; for induction of apoptosis: annexin V-FITC/PI; for viability at 5 µM: HL-60, 5 μM. The protocol:
We have previously reported that compound 1 induces 68.9 ± 0.1% apoptosis in HL-60 cells at a 10 μM concentration after 48 h. Accordingly, in order to evaluate the apoptotic effect of the most relevant derivatives (2, 3, and 4), HL-60 cells were treated with these compounds (at 5 µM, 5 µM, and 4 µM concentration, respectively) for 48 h, stained with annexin V-FITC/PI and analysed using flow cytometry (Figure 5).
Apoptosis was analysed using annexin V fluorescein isothiocyanate (FITC) and propidium iodide (PI). HL-60 cells were seeded at a density of 2 × 10^5 cells/mL in 12 well plates. Cells were then treated with either vehicle (0.5% ethanol), 2 (5 µM), 3 (5 µM), or 4 (4 µM) for 48 h. Following treatment, HL60 cells were collected and washed with annexin V binding buffer (5 mM HEPES, 70 mM NaCl, 1.25 mM CaCl2 pH 7.4) and stained with annexin V-FITC (iQ Corporation, Groningen, The Netherlands) for 20 min. Following washing with annexin V binding buffer, cells were resuspended in PI (0.5 µg/mL) in binding buffer and analysed on BD FACS Canto II flow cytometer (BD Sciences) using FloJo software (Ashland, OR, USA).
Figure 5 Annexin V-FITC vs. PI flow cytometry analysis of HL-60 cancer cells treated with compounds 3 (5 μM), 2 (5 μM) and 4 (4 μM) for 48 h. These figures are representative of three independent experiments. The viable cells, early apoptotic, necrotic and late apoptotic cells are represented by the lower left, lower right, upper left and upper right quadrants, respectively. TEXT PRINTED IN THE PICTURE: 3: 2.45; 32.6; 27.1; 37.8 | 2: 0.56; 11.3; 78.1; 9.96 | 4: 1.09; 40.2; 12.4; 46.2 DOUBTS OF THE COPYIST ABOUT THIS PICTURE: All quadrant numbers are in very small print with no measure or unit; they are listed in the order upper left, upper right, lower left, lower right / 3, upper right quadrant: 32.6, partly covered by data points, 3/8 and 6/8 uncertain / 3, lower right quadrant: 37.8, partly covered by data points, 37.8 or 37.6 / 3, lower left quadrant: 27.1, small print / 2, lower left quadrant: 78.1 or 76.1 / 2, lower right quadrant: 9.96 or 9.95 or 9.98 / 4, upper right quadrant: 40.2, partly covered by data points / 4, lower right quadrant: 46.2 or 48.2, partly covered by data points / The Control and Vehicle plots also print quadrant numbers (Control: 0.16, 1.41, 97.7, 0.77; Vehicle: 0.088, 1.65, 97.3, 0.94); they are not listed because they are not test substances […]
Apoptosis was analysed using annexin V fluorescein isothiocyanate (FITC) and propidium iodide (PI). HL-60 cells were seeded at a density of 2x10^5 cells/mL in 12 well plates. Cells were then treated with either vehicle (0.5% ethanol), 2 (5 µM), 3 (5 µM) or 4 (4 µM) for 48 hours.
Following treatment, HL60 cells were collected and washed with annexin V binding buffer (5 mM HEPES, 70 mM NaCl, 1.25 mM CaCl2 pH 7.4) and stained with annexin V -FITC (iQ Corporation, Groningen, The Netherlands) for 20 minutes. Following washing with annexin V binding buffer, cells were resuspended in PI (0.5 µg/mL) in binding buffer and analysed on BD FACS Canto II flow cytometer (BD Sciences) using FloJo software (Ashlan d, Oregon, United […]
Figure S13. Compounds 3 and 4 promote strong apoptosis when inhibiting HL-60 cell viability.
For flow cytometry, HL60 cells were seeded at a density of 2x10^5 cells/mL in 12 well plates.
Cells were then treated with either vehicle (0.5% ethanol), 2 (5 µM), 3 (5 µM) or 4 (4 µM) for 48 hours. After 48 hours, cells were collected and stained with annexin V – FITC and propidium iodide. Samples were analysed by flow cytometry using the BD FACs Canto II cytometer.
Columns and bars represent the mean ± S.D. of 3 independent experiments. Statistical analysis was performed using one-way ANOVA with Dunnett’s multiple comparisons test comparing vehicle to drug treated samples. *p<0.05 and ***p<0.001.
(1 picture or pasted object on this page, not shown here)
For orientation: Flow cytometry measures light scatter and fluorescence of single cells or particles in a stream.

Setting [1] is: Homo sapiens, representative plot, read-out: viable cells (lower left quadrant).

“And” between values parts separate entries of the source, which are not always exact repeats. Equal entries are not always repeated.

Take `Cl.N=C(N)Nc1ccc(Oc2cccc(Nc3ccc(Cl)c(C(F)(F)F)c3)c2)cn1` [Compound 4, 1-(5-(3-((4-Chloro-3-(trifluoromethyl)phenyl)amino)phenoxy)pyridin-2-yl)guanidine hydrochloride]: the induction of apoptosis (HL-60, 4 µM) was 92.7 ± 5.5% and 92%. Further, where the note is “Homo sapiens, HL-60, 4 μM, representative plot, read-out: viable cells (lower left quadrant)”, the viability at 4 µM came out at 12.4%.
For the molecule `Cl.Cl.N=C(N)Nc1ccc(Oc2cccc(NC(=N)Nc3ccc(Cl)c(C(F)(F)F)c3)c2)cn1` [Compound 2, 1-(4-Chloro-3-(trifluoromethyl)phenyl)-3-(3-((6-guanidinopyridin-3-yl)oxy)phenyl) guanidine dihydrochloride], the induction of apoptosis (HL-60, 5 µM) is 30.7 ± 11.6% and ~30%. Besides, the viability at 5 µM under setting [1] was determined as 78.1%.
On to `Cl.N=C(N)Nc1ccc(Oc2cccc(Nc3ccc(Cl)c(C(F)(F)F)c3)c2)cc1` [Compound 3, 1-(4-(3-((4-Chloro-3-(trifluoromethyl)phenyl)amino)phenoxy)phenyl)guanidine hydrochloride], for which the induction of apoptosis (HL-60, 5 µM) is 82.5 ± 11.3% and 82%. The viability at 5 µM under setting [1] is 27.1%.
